As usually defined, the IC50 is the concentration needed to halve the response being measured. High values mean weaker potency in that assay, low ones greater potency in that assay.

In ChEMBL document CHEMBL1130537, “Asymmetric synthesis of the sulfoxide metabolite of ON-579 by the kagan protocol” (Bioorg Med Chem Lett, 1997) one finds IC50 data, which are given here for 4 molecules.

The species named for this experiment is Oryctolagus cuniculus. The experiment is described as follows: Inhibitory activity against U-46,619-induced rabbit platelet aggregation was determined. Format: functional.

Molecule `O=C(O)COc1c(F)cc(SCCNS(=O)(=O)c2ccc(Cl)cc2)cc1F` registered an IC50 (Oryctolagus cuniculus) of 0.34 µM. This lies in the sub-micromolar range.

Consider `O=C(O)COc1c(F)cc([S+]([O-])CCNS(=O)(=O)c2ccc(Cl)cc2)cc1F` (racemic; form 1), for which the half-inhibitory concentration (IC50) is no less than 1 µM.

The molecule `O=C(O)COc1c(F)cc([S+]([O-])CCNS(=O)(=O)c2ccc(Cl)cc2)cc1F` (racemic; form 2) came in with an IC50 of 18.9 µM.

Turning to `O=C(O)COc1c(F)cc([S+]([O-])CCNS(=O)(=O)c2ccc(Cl)cc2)cc1F` (stereo in doubt; (-/-)4b), the concentration for half-maximal inhibition (IC50) turned out to be 13.3 µM. The IC50 values of the last two molecules are within 1.5-fold of each other.
